This note sets out measurements from patent US10894798B2, “Substituted dihydropyrrolopyrazole derivative” (UBE INDUSTRIES, LTD., priority 2015, dated 2021).

In assay [1] the test system is multiple myeloma cell line NCI-H929. Briefly: Various human cancer cell growth inhibition test: NCI-H929. Type of assay: cell-based. Conditions: CellTiter-Glo, read-out: GI50 value (concentration necessary for inhibiting 50% of cell growth). An excerpt:
(§1) A breast cancer cell line BT-549 (obtained from American Type Culture Collection (ATCC)), a uterus cancer cell line C-33A (obtained from ATCC), an ovary cancer cell line PA-1 (obtained from ATCC), a large-cell lung cancer cell line NCI-H460 (obtained from ATCC), a small-cell lung cancer cell line NCI-H82 (obtained from ATCC), a kidney cancer cell line ACHN (obtained from ATCC), a pancreatic cancer cell line BxPC-3 (obtained from ATCC), a malignant melanoma cell line A375 (obtained from ATCC), a throat cancer cell line FaDu (obtained from ATCC), a medulloblastoma cell line Daoy (obtained from ATCC), a cutaneous epithelioid sarcoma cell line VA-ES-BJ (obtained from ATCC), a rhabdomyosarcoma cell line A-204 (obtained from ATCC), a prostate cancer cell line DU145 (obtained from ATCC), a bladder cancer cell line T24 (obtained from ATCC), a lymphoma cell line SR (obtained from ATCC), a neuroblastoma cell line SH-SY5Y (obtained from DS Pharma Biomedical Co., Ltd.), a liver cancer cell line HepG2 (obtained from DS Pharma Biomedical Co., Ltd.), a stomach cancer cell line HGC-27 (obtained from DS Pharma Biomedical Co., Ltd.), and a multiple myeloma cell line NCI-H929 (obtained from DS Pharma Biomedical Co., Ltd.) were used as human cancer cell lines.
(§2) Each cell line was cultured in a cell culture medium recommended by ATCC or DS Pharma Biomedical Co., Ltd. and inoculated at 0.3 to 5.0×10^3 cells/well to a 96-well plate. The cells were cultured overnight in a carbon dioxide incubator of 37° C. containing 5% carbon dioxide. The medium was replaced with a fresh medium on the next day, then replaced with a mixed solution of a DMSO solution of a test compound with varying concentrations and a culture medium (final DMSO concentration: 0.1%), and left standing in a carbon dioxide incubator (day 0). IV-361, IV-379, IV-3, IV-215, IV-299, IV-669, IV-1049, and palbociclib (for comparison) were used as test compounds. For a control group, DMSO was added instead of the DMSO solution of the test compound to a cell culture medium (final DMSO concentration: 0.1%).
(§3) After culture for a predetermined period, the ATP activity of BT-549, C-33A, PA-1, NCI-H460, NCI-H82, ACHN, BxPC-3, A375, FaDu, Daoy, VA-ES-BJ, A-204, DU145, T24, and SR was measured by using ATPlite (manufactured by PerkinElmer, Inc.). The ATP activity of SH-SY5Y, HepG2, HGC-27, and NCI-H929 was measured by using CellTiter-Glo (manufactured by Promega Corp.).
(§4) The rate of inhibition of cell growth (%) was calculated according to the expression given below. Specifically, in the case where the difference between the ATP activity before culture (day 0) and the ATP activity after culture in the test compound-administered group is the same as the difference between the ATP activity before culture (day 0) and the ATP activity after culture in the control group, the rate of inhibition of cell growth is 0%. Rate of inhibition of cell growth=(1−((ATP activity of the test compound-administered group after culture)−(ATP activity of the test compound-administered group on day 0))/((ATP activity of the control group after culture)−(ATP activity of the control group on day 0)))×100
(§5) The concentration of the test compound necessary for inhibiting 50% of cell growth (GI50 value) was calculated by using EXSUS (version 8.1.0, manufactured by CAC Exicare Corp.).

In assay [2] the test system is large-cell lung cancer cell line NCI-H460. Kind of assay: Various human cancer cell growth inhibition test: NCI-H460. Type of assay: cell-based. To be noted: ATPlite, read-out: GI50 value (concentration necessary for inhibiting 50% of cell growth).
Excerpt: as §1, §2, §3, §4, §5
In general terms: In ATP-based viability assays light output follows the ATP content of the culture.

Assay [3] has as its system stomach cancer cell line HGC-27. Kind of assay: Various human cancer cell growth inhibition test: HGC-27. It counts as cell-based. To be noted: CellTiter-Glo, read-out: GI50 value (concentration necessary for inhibiting 50% of cell growth).
Excerpt: as §1, §2, §3, §4, §5

The subject of assay [4] is uterus cancer cell line C-33A. Briefly: Various human cancer cell growth inhibition test: C-33A. Type of assay: cell-based. Conditions: ATPlite, read-out: GI50 value (concentration necessary for inhibiting 50% of cell growth).
Excerpt: as §1, §2, §3, §4, §5

In assay [5] the test system is medulloblastoma cell line Daoy. Kind of assay: Various human cancer cell growth inhibition test: Daoy. It counts as cell-based. To be noted: ATPlite, read-out: GI50 value (concentration necessary for inhibiting 50% of cell growth).
Excerpt: as §1, §2, §3, §4, §5

Assay [6] relates to kidney cancer cell line ACHN. Briefly: Various human cancer cell growth inhibition test: ACHN. Type of assay: cell-based. Conditions: ATPlite, read-out: GI50 value (concentration necessary for inhibiting 50% of cell growth).
Excerpt: as §1, §2, §3, §4, §5

Assay [7] concerns pancreatic cancer cell line BxPC-3. Kind of assay: Various human cancer cell growth inhibition test: BxPC-3. Type of assay: cell-based. To be noted: ATPlite, read-out: GI50 value (concentration necessary for inhibiting 50% of cell growth).
Excerpt: as §1, §2, §3, §4, §5

Assay [8] has as its system small-cell lung cancer cell line NCI-H82. Briefly: Various human cancer cell growth inhibition test: NCI-H82. It counts as cell-based. Conditions: ATPlite, read-out: GI50 value (concentration necessary for inhibiting 50% of cell growth).
Excerpt: as §1, §2, §3, §4, §5

Assay [9] has as its system mouse imiquimod-induced psoriasis model. Kind of assay: Ear thickening suppression test using mouse imiquimod-induced psoriasis model. Type of assay: in vivo. Conditions: topical, application of a 0.01% solution in methanol, female BALB/c mice, read-out: rate of inhibition of increase in ear thickness. As for the experimental part: An imiquimod-induced psoriasis model test was carried out by modifying the method of Leslie van der Fits et al. (J. Immunol. 182, 5836 (2009)).
Female BALB/c mice (supplied by Charles River Laboratories Japan, Inc.) were used as laboratory animals. On the start day of the test, the thicknesses of the right auricles of the mice were measured with a thickness gauge (manufactured by TECLOCK Corp.). A test compound or a solvent was applied or orally administered thereto, and after a certain time, a certain amount of Beselna Cream 5% (containing 5% imiquimod, manufactured by Mochida Pharmaceutical Co., Ltd.) was applied to the insides of the right auricles. The test compound or solvent application or oral administration and the imiquimod application were carried out for a certain period, and the thicknesses of the right auricles were measured again on the final day. The thicknesses of the right auricles were compared between the solvent-administered group and the test compound group, and the rate of inhibition was calculated.

Assay [10] deals with breast cancer cell line BT-549. Kind of assay: Various human cancer cell growth inhibition test: BT-549. It counts as cell-based. Conditions: ATPlite, read-out: GI50 value (concentration necessary for inhibiting 50% of cell growth).
Excerpt: as §1, §2, §3, §4, §5

Consider `Cc1cccc(Br)c1NC(=O)N1Cc2c(NC(=O)C3([Si](C)(C)C)CCC3)n[nH]c2C1(C)C` [IV-299, N-(2-Bromo-6-methylphenyl)-6,6-dimethyl-3-[1-(trimethylsilyl)cyclobutanecarboxamido]-4,6-dihydropyrrolo[3,4-c]pyrazole-5 (1H)-carboxamide], for which the GI50 in assay [1], in assay [2], in [3], in assay [4], in assay [5] and in assay [6] was < 300 nM in each case. The GI50 in [7], in assay [8] and in [10] was < 300 nM in each case. In addition, the inhibition in vivo at 0.01 % in assay [9] is ≥ 50%.
